assay: Binding affinity was measured by its ability to displace [3H]CCK-8S from CCK-B receptor in guinea pig brain

Compound | Ki [nM]
CC(C)CCN1C(=O)C(NC(=O)Nc2ccccc2)C(=O)N(c2ccccc2)c2cc(Cl)c(Cl)cc21 (stereo not given) | 1580
CC(C)CCN1C(=O)C(NC(=O)Nc2ccccc2)C(=O)N(c2ccccc2)c2ccc(Cl)cc21 (stereo not given) | 955
CC(C)CCN1C(=O)C(NC(=O)Nc2ccccc2)C(=O)N(c2ccccc2)c2cc(F)ccc21 (stereo not given) | 224
CC(C)CCN1C(=O)C(NC(=O)Nc2ccccc2)C(=O)N(c2ccccc2)c2cc(Cl)ccc21 (stereo not given) | 955
CC(C)CCN1C(=O)C(NC(=O)Nc2ccccc2)C(=O)N(c2ccccc2)c2ccc(F)cc21 (stereo not given) | < 1000

Source: BindingDB's records for doi:10.7270/Q2CV4KX9 (n/a, 1995)
